In patent US11135223B2, “Compositions and methods for inhibiting Dkk-1” (YALE UNIVERSITY, priority 2016, dated 2021):

Target: T1, Dkk-1 (Mus musculus, UniProt O54908)
T1 construct: the primary circulating source of Dkk-1 in during both homeostatic and allergen-challenged conditions is platelets; from tissue; host or cells: living C57BL/6 mice; circulating Dkk-1 released from platelets
T1 sequence (O54908 32-272): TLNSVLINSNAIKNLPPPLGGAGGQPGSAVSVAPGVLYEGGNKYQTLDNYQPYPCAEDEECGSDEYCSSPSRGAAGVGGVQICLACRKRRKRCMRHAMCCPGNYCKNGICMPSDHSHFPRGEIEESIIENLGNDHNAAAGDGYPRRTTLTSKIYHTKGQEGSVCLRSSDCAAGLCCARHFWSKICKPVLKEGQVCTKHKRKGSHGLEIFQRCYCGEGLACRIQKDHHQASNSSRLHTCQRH
Assay: House dust mite (HDM)-induced asthma model
Assay type: in vivo, mice
From the text: FIG. 1, comprising FIG. 1A through FIG. 1F, depicts results of experiments showing the characterization of Dkk-1^d/d mice. FIG. 1A depicts flow cytometry analysis of single cell suspensions from spleen of six to ten week-old Dkk-1^d/d mice (n=5) and their wildtype littermate controls (n=3). FIG. 1B depicts flow cytometry analysis of single cell suspensions from bone marrow of six to ten week-old Dkk-1^d/d mice (n=5) and their wildtype littermate controls (n=3). FIG. 1C depicts ELISA analysis of splenic CD4 T cells isolated by MACS and stimulated with anti-CD3 and anti-CD28 mAb (2 μg/ml) for 4 days. FIG. 1C depicts percentage of cells in peripheral blood from ten to twelve week-old Dkk-1^d/d mice (n=5) and their wildtype littermate controls (n=5) measured by HEMAVAT analyzer. WBC (White blood cells), NE (Neutrophils), LY (Lymphocytes), MO (Monocytes), EO (Eosinophils) were counted. FIG. 1D depicts cell number in peripheral blood from ten to twelve week-old Dkk-1^d/d mice (n=5) and their wildtype littermate controls (n=5) measured by HEMAVAT analyzer. WBC (White blood cells), NE (Neutrophils), LY (Lymphocytes), MO (Monocytes), EO (Eosinophils) were counted. FIG. 1F depicts airway resistance of Dkk-1^d/d and C57Bl/6 mice. […] Control group mice (n=3) were challenged with PBS. […] Dkk-1 inhibitor (10 mg/kg) was injected intraperitoneally at day −1, +1, +6, +8, +10, and +12. Student's t-test was used. n.s, not significant. Small horizontal lines indicate the mean (±s.e.m.). *, p<0.05
FIG. 11, comprising FIG. 11A through FIG. 11J, depicts results of experiments showing Dkk-1 facilitates leukocyte migration and regulates leukocyte-platelet aggregate formation in type 2 inflammation. FIG. 11A depicts flow cytometry analysis of CD45^+ cells in lung homogenates from nine-week old Dkk-1^d/d mice and wildtype littermate controls (n=5-6/group) 72 hours after challenge with 30 μg HDM allergen extract. FIG. 11B depicts analysis of percentages of CD45^+CD41^+ cells in peripheral blood from nine-week old Dkk-1^d/d mice and wildtype littermate controls collected at 4 hours and 24 hours after allergen challenge. FIG. 11C depicts flow cytometry analysis of CD45+ cells after Dkk-1 protein (300 ng/mouse) was injected intraperitoneally. FIG. 11D depicts a schematic diagram of Dkk-1 inhibitor treatment protocol for each group (n=5 for each group) in the HDM-induced asthma model. HDM allergen extract (10 μg) was challenged intranasally at the indicated time points. FIG. 11E depicts analysis of CD45^+ leukocytes numbers in BALF and Lung after Dkk-1 inhibitor treatment in the HDM-induced asthma model. FIG. 11F depicts analysis of neutrophils, eosinophils, and CD4 T cell numbers in the lungs after Dkk-1 inhibitor treatment in the HDM-induced asthma model. FIG. 11G depicts analysis of the number of CD4 T cells in mediastinal LNs. FIG. 11H depicts ELISA analysis of cytokines after 4 days of stimulation of med LN cells. FIG. 111 depicts scoring of H&E staining. FIG. 11J depicts scoring of PAS staining.
FIG. 13, comprising FIG. 13A through FIG. 13C, depicts results of experiments showing pharmacological antagonism of Dkk-1 in the HDM-induced asthma model. FIG. 13A depicts neutrophils and eosinophils in BALF. FIG. 13B depicts CD4 T cell percentages in med LNs measured by flow cytometry. FIG. 13C depicts representative images H&E and PAS staining. One-way ANOVA analysis with Dunnet's post-hoc test was performed. **, p<0.005, *, p<0.05.
FIG. 18 depicts results of experiments showing a Dkk-1 monoclonal antibody treatment protects […] mice from house dust mite (HDM)-induced asthma. Six-week-old female C57Bl/6 mice were treated with PBS(n=4), HDM(n=5), HDM and isotype antibody (n=5), and HDM plus Dkk-1 mAb (n=5). 10 μg of HDM was treated intranasally on day 0, 7, 8, 9, 10 and 11. Isotype antibody or Dkk-1 mAb was treated on day −1, +1, +6, +8, and +10. On day 14, mice were sacrificed and the lungs were harvested. fHCD45+ leukocytes were counted by flow cytometry. […]

## NCC1CCN(c2nccc(-c3ccc4ccccc4c3)n2)CC1 [WAY-262611, (1-(4-(naphthalen-2-yl)pyrimidin-2-yl)piperidin-4-yl)methanamine]
C57Bl/6 mice, Dkk-1 inhibitor 10 mg/kg intraperitoneally, FIG. 1F
  airway resistance increase by HDM: notably decreased
FIG. 11G
  number of CD4 T cells in mediastinal lymph nodes: reduced
Both ET (early treatment) and LT (late treatment) protocols, FIG. 11E, 11F, 13A
  Leukocyte infiltration including CD4 T cells, neutrophils, and eosinophils in BAL fluid and lung tissues: markedly decreased
Challenge stage or sensitization stage treatment, FIG. 11I, 11J, 13C
  histopathological scores (H&E, PAS): inhibition of type 2 inflammatory responses
Ex vivo stimulation of med LN cells 4 days, FIG. 11H
  TH2 cytokine secretion from mediastinal lymph nodes: diminished
Mediastinal lymph nodes, FIG. 13
  percentage of CD4 T cells in the lymph nodes: did not change
